In US9248128B2, “Method for enhancing remyelination using GLI1 inhibitors” (NEW YORK UNIVERSITY, priority 2012, dated 2016):

What was measured:
Hh pathway = conditions: Peukert and Miller-Moslin, ChemMedChem 2010; cited from earlier work
Gli1^het;RCE mice = experiment: GANT61 infusion into lateral ventricle during cuprizone demyelination/remyelination; GFP-labeled cells in Corpus Callosum by immunofluorescence; type: in vivo, mouse; conditions: n=3
Description: 10 week old mice were administered 5 mg Tamoxifen (Sigma) in corn oil on alternate days for total of 4 intraperitoneal (i.p.) injections. Gli1^het;RCE, mice, maintained on the Swiss-Webster background, were fed 0.4% cuprizone (Matsushima and Morell, 2001, Brain Pathol., 11:107-116; Elsworth & Howell, Research in Veterinary Science, 14:385-387, 1973). […] For the LPC model, 2 μl 1% LPC (Calbiochem) were stereotaxically injected into the CC at 1.5 mm anterior, 1.2 mm lateral and 2.2 mm ventral to bregma.
GANT61 (Enzo Life Sciences product #ALX-270-482) (5.6 mg/Kg per day; compound in 50% DMSO and 15% Ethanol in PEG400) or vehicle (50% DMSO+15% Ethanol in PEG400) were delivered via mini-osmotic pump (model 2004, Durect) at a rate of 0.25 μl/h for 4 weeks into the lateral ventricle of Gli^het;RCE mice at 0.5 mm Anterior, 0.75 mm lateral and 2.5 mm ventral to the bregma.
For Black-Gold (Millipore) staining, mice were perfused with 4% PFA and 20 μm coronal sections were stained according to manufacturer's protocol. For all other analysis, mice were perfused with Prefer (Anatech) and 20 μm coronal sections were stained with X-gal (Ahn & Joyner, Nature, 437:894-897, 2005) or processed for immunofluorescence with rabbit or chicken anti-GFP (1:1,000, Invitrogen) and one of the following antibodies: rat anti-PDGFRα (1:200, BD Biosciences); rabbit anti-NG2 (1:200, Millipore) and β4 spectrin (1:4,000 from M. Rasband); mouse anti-CC1 (1:400, Calbiochem), anti-GFAP (1:400, Sigma), anti-MOG (1:50, Sigma) and guinea pig anti-Caspr (1:3,000 from M. Bhat). Secondary antibodies were goat anti-species conjugated to Alexafluor-488, 594 or -680 (1:1,000, Molecular Probes). Nuclei were counterstained with Hoechst 33258 (1:5,000, Invitrogen). Fluorescent images were obtained as Z-stacks of 1 μm optical sections using a confocal laser-scanning microscope (LSM 510, Zeiss) and processed using Adobe Photoshop. At least 10 sections/mouse were analyzed and data from at least 3 mice were combined to determine the average and standard deviation. Student's t-test was performed to calculate P values.
To assess whether a strategy of inhibiting Gli1 could potentially be used therapeutically, GANT61, a small molecule inhibitor of Gli1 (Lauth et al., Proc. Natl. Acad. Sci. U.S.A., 104:8455-8460, 2007), was infused into the lateral ventricle of Gli1^het;RCE mice via a mini-osmotic pump. The infusion was started after 4 weeks of cuprizone diet and was continued for an additional 2 weeks on cuprizone and 2 weeks off cuprizone for a total of 4 weeks. Mice were then sacrificed and analyzed (FIG. 4a).

Row | SMILES | selectivity for the Hh pathway over TNF/NFkN signaling, glucocorticoid receptor gene transactivation, and the Ras-Raf-Mek-Mapk cascade (Hh pathway) | numbers of labeled cells in the CC (Gli1^het;RCE mice; 5.6 mg/Kg per day via mini-osmotic pump for 4 weeks (2 weeks on, 2 weeks off cuprizone), mean±SD, vehicle 6.4±5) | proportion of differentiated oligodendrocytes among GFP-labeled cells (Gli1^het;RCE mice; 5.6 mg/Kg per day via mini-osmotic pump for 4 weeks, mean±SD, vehicle 21.4±18.7%) | increase in GFP-labeled cells in the CC (Gli1^het;RCE mice; FIG. 4C, versus control infusion) | percentage of mature oligodendrocytes (Gli1^het;RCE mice; FIG. 4D, versus control infusion, Student's T test)
1 | c1cc(-c2sc(-c3ccncc3)c(-c3ccncc3)c2-c2ccncc2)ccn1 [GANT58] | display selectivity for the Hh pathway |  |  |  | 
2 | CN(C)c1ccccc1CN1CCCN(Cc2ccccc2N(C)C)C1c1ccncc1 [GANT61] | display selectivity for the Hh pathway | 43.8±22.1 per section | 65.4±7.5% | ~7 fold | significant increase
